In US20230131966A1, “FUNGICIDAL AMIDES” (FMC Corporation, priority 2020, published 2023):

Experiments:
Type in all cases: in vivo
Botrytis cinerea = experiment: Test E: tomato Botrytis control on tomato seedlings; details: 250 ppm, 100 = 100% disease control, 0 = no control
Plasmopara viticola = experiment: Test D: grape downy mildew control on grape seedlings; details: 250 ppm, 100 = 100% disease control, 0 = no control
Zymoseptoria tritici = experiment: Test C: wheat leaf blotch control on wheat seedlings; details: 250 ppm, wheat seedlings, 100 = 100% disease control, 0 = no control
Phakopsora pachyrhizi = experiment: Test A: Asian soybean rust control on soybean seedlings; details: 250 ppm, soybean seedlings, 100 = 100% disease control, 0 = no control
Phytophthora infestans = experiment: whole plant or invertebrate; details: tomato seedlings, 100 = 100% disease control, 0 = no control; for Test F disease control rating: 250 ppm
[1] = tested on: Puccinia recondita f. sp. tritici; experiment: Test B: wheat leaf rust control on wheat seedlings; details: 250 ppm, wheat seedlings, 100 = 100% disease control, 0 = no control
[2] = tested on: Erysiphe graminis f. sp. tritici; experiment: Test G: wheat powdery mildew control on wheat seedlings; details: 250 ppm, 100 = 100% disease control, 0 = no control

SMILES: COc1ccnc(C(=O)N[C@@H](C)C(=O)OC(C)c2ccc(C(C)(C)C)cc2)c1OC(C)=O (some centres unmarked) [Compound 121]
- Test E disease control rating (Botrytis cinerea): 9%
- Test D disease control rating (Plasmopara viticola): 50%
- Test C disease control rating (Zymoseptoria tritici): 99%
- Test A disease control rating (Phakopsora pachyrhizi): 100%
- Test F disease control rating (Phytophthora infestans): 0%
- Test B disease control rating [1]: 100%
- Test G disease control rating [2]: 0%

SMILES: COc1ccnc(C(=O)NC(C)C(=O)OC(C)c2ccc(F)cc2Oc2ccccc2)c1O (mixture of isomers) [Compound 81]
- Test E disease control rating (Botrytis cinerea): 0%
- Test D disease control rating (Plasmopara viticola): 53%
- Test C disease control rating (Zymoseptoria tritici): 78%
- Test A disease control rating (Phakopsora pachyrhizi): 93%
- Test F disease control rating (Phytophthora infestans): 0%
- Test B disease control rating [1]: 68%
- Test G disease control rating [2]: 0%

SMILES: COc1ccnc(C(=O)N[C@@H](C)C(=O)OC(C)c2ccccc2-c2ccccc2)c1O (single isomer, unassigned) [Compound 2]
- Test E disease control rating (Botrytis cinerea): 0%
- Test D disease control rating (Plasmopara viticola): 63%
- Test C disease control rating (Zymoseptoria tritici): 73%
- Test A disease control rating (Phakopsora pachyrhizi): 99%
- Test F disease control rating (Phytophthora infestans): 0%
- Test B disease control rating [1]: 55%
- Test G disease control rating [2]: 0%

SMILES: COc1ccnc(C(=O)NC(C)C(=O)OC(C)c2ccc(-n3ccc(C(F)(F)F)n3)cc2-n2ccc(C(F)(F)F)n2)c1OC(C)=O (mixture of isomers) [Compound 90]
- Test E disease control rating (Botrytis cinerea): 0%
- Test D disease control rating (Plasmopara viticola): 17%
- Test C disease control rating (Zymoseptoria tritici): 0%
- Test A disease control rating (Phakopsora pachyrhizi): 0%
- Test F disease control rating (Phytophthora infestans): 0%
- Test B disease control rating [1]: 55%
- Test G disease control rating [2]: 0%

SMILES: CCC(OC(=O)[C@H](C)NC(=O)c1nccc(OC)c1OC(C)=O)C1CCCCC1 (single isomer, unassigned) [Compound 168]
- Test E disease control rating (Botrytis cinerea): 0%
- Test D disease control rating (Plasmopara viticola): 31%
- Test C disease control rating (Zymoseptoria tritici): 99%
- Test A disease control rating (Phakopsora pachyrhizi): 100%
- Test F disease control rating (Phytophthora infestans): 0%
- Test B disease control rating [1]: 100%
- Test G disease control rating [2]: 0%

SMILES: COc1ccnc(C(=O)N[C@@H](C)C(=O)OC(C)c2ccccc2Cc2ccc(F)cc2)c1O (single isomer, unassigned) [Compound 39]
- Test E disease control rating (Botrytis cinerea): 57%
- Test D disease control rating (Plasmopara viticola): 16%
- Test C disease control rating (Zymoseptoria tritici): 87%
- Test A disease control rating (Phakopsora pachyrhizi): 100%
- Test F disease control rating (Phytophthora infestans): 0%
- Test B disease control rating [1]: 100%
- Test G disease control rating [2]: 0%

SMILES: CCC(OC(=O)[C@H](C)NC(=O)c1nccc(OC)c1O)C1CCCCC1 (single isomer, unassigned) [Compound 182]
- Test E disease control rating (Botrytis cinerea): 0%
- Test D disease control rating (Plasmopara viticola): 15%
- Test C disease control rating (Zymoseptoria tritici): 45%
- Test A disease control rating (Phakopsora pachyrhizi): 100%
- Test F disease control rating (Phytophthora infestans): 0%
- Test B disease control rating [1]: 0%
- Test G disease control rating [2]: 0%

SMILES: COc1ccc(COc2c(OC)ccnc2C(=O)NC(C)C(=O)OC(C)c2ccc(C3CCCCC3)cc2)cc1 (mixture of isomers) [Compound 155]
- Test E disease control rating (Botrytis cinerea): 0%
- Test D disease control rating (Plasmopara viticola): 5%
- Test C disease control rating (Zymoseptoria tritici): 98%
- Test A disease control rating (Phakopsora pachyrhizi): 100%
- Test F disease control rating (Phytophthora infestans): 0%
- Test B disease control rating [1]: 99%
- Test G disease control rating [2]: 0%

SMILES: COc1ccnc(C(=O)NC(C)C(=O)OC(C)c2ccccc2Oc2ccc(F)cc2)c1OC(C)=O (mixture of isomers) [Compound 61]
- Test E disease control rating (Botrytis cinerea): 0%
- Test D disease control rating (Plasmopara viticola): 15%
- Test C disease control rating (Zymoseptoria tritici): 0%
- Test A disease control rating (Phakopsora pachyrhizi): 0%
- Test F disease control rating (Phytophthora infestans): 0%
- Test B disease control rating [1]: 55%
- Test G disease control rating [2]: 0%

SMILES: COc1ccnc(C(=O)N[C@@H](C)C(=O)OC(C)c2ccc(C3CCCCC3)cc2)c1OC(=O)c1ccccc1 (some centres unmarked) [Compound 136]
- Test E disease control rating (Botrytis cinerea): 0%
- Test D disease control rating (Plasmopara viticola): 4%
- Test C disease control rating (Zymoseptoria tritici): 0%
- Test A disease control rating (Phakopsora pachyrhizi): 60%
- Test F disease control rating (Phytophthora infestans): 0%
- Test B disease control rating [1]: 90%
- Test G disease control rating [2]: 0%

SMILES: COc1ccnc(C(=O)NC(C(=O)OC(C)c2ccc(C3CCCCC3)cc2)C(C)C)c1O (mixture of isomers) [Compound 70]
- Test E disease control rating (Botrytis cinerea): 0%
- Test D disease control rating (Plasmopara viticola): 63%
- Test C disease control rating (Zymoseptoria tritici): 97%
- Test A disease control rating (Phakopsora pachyrhizi): 100%
- Test F disease control rating (Phytophthora infestans): 24%
- Test B disease control rating [1]: 100%
- Test G disease control rating [2]: 13%

SMILES: COc1ccnc(C(=O)NC(C)C(=O)OC(C)c2ccc(C#C[Si](C)(C)C)cc2)c1O (mixture of isomers) [Compound 69]
- Test E disease control rating (Botrytis cinerea): 0%
- Test D disease control rating (Plasmopara viticola): 50%
- Test C disease control rating (Zymoseptoria tritici): 94%
- Test A disease control rating (Phakopsora pachyrhizi): 100%
- Test F disease control rating (Phytophthora infestans): 9%
- Test B disease control rating [1]: 100%
- Test G disease control rating [2]: 0%

SMILES: COc1ccnc(C(=O)N[C@@H](C)C(=O)OC(C)C2CCCCC2)c1OC(C)=O (mixture of isomers) [Compound 29, N-[[3-(acetyloxy)-4-methoxy-2-pyridinyl]carbonyl]-L-alanine 1-cyclohexylethyl ester]
- pest or weed control at 250 ppm (Botrytis cinerea; Botrytis cinerea, read-out: Test E disease control rating): 0%
- pest or weed control at 250 ppm (Plasmopara viticola; Plasmopara viticola, read-out: Test D disease control rating): 17%
- pest or weed control at 250 ppm (Zymoseptoria tritici; Zymoseptoria tritici, read-out: Test C disease control rating): 95%
- pest or weed control at 250 ppm (Phakopsora pachyrhizi; Phakopsora pachyrhizi, read-out: Test A disease control rating): 100%
- pest or weed control at 250 ppm (Phytophthora infestans; Phytophthora infestans, in Solanum lycopersicum, read-out: Test F disease control rating, 250 ppm): 33%
- pest or weed control at 250 ppm ([1]; Puccinia recondita, read-out: Test B disease control rating): 99%
- pest or weed control at 250 ppm ([2]; Blumeria graminis, read-out: Test G disease control rating): 0%

SMILES: COc1ccnc(C(=O)N[C@@H](C)C(=O)OC(C)c2ccc(F)cc2Cc2ccccc2)c1O (single isomer, unassigned) [Compound 23]
- Test E disease control rating (Botrytis cinerea): 0%
- Test D disease control rating (Plasmopara viticola): 44%
- Test C disease control rating (Zymoseptoria tritici): 95%
- Test A disease control rating (Phakopsora pachyrhizi): 100%
- Test F disease control rating (Phytophthora infestans): 0%
- Test B disease control rating [1]: 97%
- Test G disease control rating [2]: 0%
